Measurements taken from PubChem BioAssay AID434987 (Southern Research Specialized Biocontainment Screening …, 2010).
Calls of active or inactive are those of the source. No rule for the calls is given here.

Tested on: M. tuberculosis H37Rv growth inhibition with meropenem
Assay: dose response, H37Rv, with and without meropenem (AID 434987);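 also: growth over 7 days at 37 °C before Alamar Blue read on day 9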
[1] = M. tuberculosis H37Rv growth inhibition, measured here: IC50 without meropenem
[2] = M. tuberculosis H37Rv growth inhibition, measured here: IC90 without meropenem
[3] = measured here: IC90 with meropenem

SMILES	IC50	IC50 [1]	IC90 [2]	IC90 [3]
COc1ccc(OC)c(Nc2nc(-c3cccs3)cs2)c1	42.8 µM (inactive)	49 µM	> 100 µM	> 100 µM
CCOC(=O)N1CCN(C(=O)CSc2nnc(-c3ccccc3OC)o2)CC1	6.68 µM	30 µM	62.6 µM	> 100 µM
Cc1cc(C(=O)CN2C(=O)NC(c3ccccc3)(c3ccccc3)C2=O)c(C)n1Cc1ccccc1	> 100 µM (inactive)	> 100 µM	> 100 µM	> 100 µM
CCOC(=O)N1CCN(C(=O)CSc2nnc(COc3ccccc3)o2)CC1	7.33 µM	21.5 µM	72.9 µM	18.4 µM
C=C(C)COc1ccc(-c2nc(N)ncc2Oc2ccc(OC)cc2)c(O)c1	> 100 µM (inactive)	> 100 µM	> 100 µM	> 100 µM
CCN(CC)C(=O)Cn1cc(C(=O)C(=O)N2CCN(c3ccccc3)CC2)c2ccccc21	> 100 µM (inactive)	> 100 µM	> 100 µM	> 100 µM
COc1ccc(OC)c(-c2cc(C(=O)Nc3c(C)nn(Cc4ccccc4C)c3C)no2)c1	> 100 µM (inactive)	> 100 µM	> 100 µM	> 100 µM
CCSc1nc2ccccc2c(=O)n1CCc1ccc(OC)c(OC)c1	> 100 µM (inactive)	> 100 µM	> 100 µM	> 100 µM
CCOC(=O)c1c(C)[nH]c(C)c1C(=O)COC(=O)/C=C/c1ccc(OC(F)F)cc1	61.1 µM (inactive)	98.3 µM	> 100 µM	91.4 µM
C/C(=N\NC(=S)NCc1ccccc1)c1cccc(Br)c1	> 100 µM (inactive)	> 100 µM	> 100 µM	> 100 µM
COC(=O)C1=C(C)NC(=O)/C1=C\c1cc(C)n(-c2cc(C)cc(C)c2)c1C	88.9 µM (inactive)	97.9 µM	> 100 µM	> 100 µM
CCc1cc2c(=O)oc(-c3ccccc3F)nc2s1	> 100 µM (inactive)	> 100 µM	> 100 µM	> 100 µM
Cc1ccc(C)c(-n2c(-c3ccco3)n[nH]c2=S)c1	14 µM	48.9 µM	> 100 µM	> 100 µM
Cc1ccccc1OCC(=O)Nc1ccccc1-c1ccccc1	6.04 µM	> 100 µM	> 100 µM	> 100 µM
O=C1O/C(=C/c2ccccc2)N=C1c1ccccc1	1.34 µM	16.9 µM	> 100 µM	28.3 µM
Cn1c(O)c(/C=C2/C=CC=N2)c(=O)[nH]c1=O	18.3 µM	> 100 µM	> 100 µM	> 100 µM
NC(=S)N/N=C/c1ccc([N+](=O)[O-])cc1	31.7 µM	> 100 µM	> 100 µM	> 100 µM
O=C(N/N=C/c1cccc(NC(=O)c2ccc(Cl)cc2)c1)c1cccc(O)c1	> 100 µM (inactive)	> 100 µM	> 100 µM	> 100 µM
COc1cccc(NC(=O)C(=O)c2cn(CC(=O)N3CCOCC3)c3ccccc23)c1	> 100 µM (inactive)	> 100 µM	> 100 µM	> 100 µM
CCC(CC)NC(=O)CON=C1c2ccccc2-c2ccccc21	> 100 µM (inactive)	> 100 µM	> 100 µM	> 100 µM

SMILES	IC50	IC50 [1]	IC90 [2]	IC90 [3]
O=S(=O)(Nc1ccccc1)c1ccc2c(c1)CCO2	> 100 µM (inactive)	> 100 µM	> 100 µM	> 100 µM
Cc1nc(S/C(=C\c2ccc(OCc3ccccc3Cl)cc2)C(=O)O)n[nH]1	> 100 µM (inactive)	> 100 µM	> 100 µM	> 100 µM
O=C(Cn1ncc2c3ccccc3n(Cc3ccccc3F)c2c1=O)NCCCN1CCCC1=O	> 100 µM (inactive)	> 100 µM	> 100 µM	> 100 µM
O=C(NC1CCCCCCC1)c1ccc(Br)cc1	> 100 µM (inactive)	> 100 µM	> 100 µM	> 100 µM
O=C(NNC(=O)c1ccc(Oc2cc(Cl)cc(Cl)c2)o1)c1ccccc1	> 100 µM (inactive)	> 100 µM	> 100 µM	> 100 µM
O=C(OCC(=O)N1CCN(C(=O)c2ccco2)CC1)c1cc(-c2ccco2)nc2ccccc12	99.1 µM (inactive)	> 100 µM	> 100 µM	> 100 µM
COC(=O)c1sc(-c2ccc(Cl)cc2)cc1NC(=O)COCC(=O)O	15.2 µM	39.5 µM	> 100 µM	44.8 µM
Cc1cc(C(=O)Nc2ccc(Br)cc2F)n(-c2ccccc2)n1	> 100 µM (inactive)	> 100 µM	> 100 µM	> 100 µM
O=C(CN1CCN(c2ccc(F)cc2)CC1)Nc1ccccc1C(=O)NCCc1ccccc1	35.1 µM	> 100 µM	> 100 µM	> 100 µM
O=C(NNC1=C(C(=O)C(F)(F)F)CCC1)c1cccc(O)c1	68 µM (inactive)	> 100 µM	> 100 µM	> 100 µM
CCOc1cc(/C=N/Nc2nc(-c3cccs3)c(NC(C)=O)s2)ccc1O	42.4 µM (inactive)	> 100 µM	> 100 µM	> 100 µM
CNc1ccccc1NC(=O)C1CCCN1C(=O)OCc1ccccc1 (configuration not stated)	> 100 µM (inactive)	> 100 µM	> 100 µM	> 100 µM
CCOc1cc(/C=N\Nc2ccc([N+](=O)[O-])cc2)ccc1OCC(=O)Nc1ccc(C)c(C)c1	5.99 µM	> 100 µM	> 100 µM	> 12.5 µM
O=C(COC(=O)Cc1ccc(S(=O)(=O)N2CCCCC2)s1)Nc1ccc2c(c1)OCO2	76.2 µM (inactive)	68.8 µM	> 100 µM	> 100 µM
CC(=O)c1c(C)[nH]c(C(=O)OCC(=O)Nc2nnc(-c3ccccc3)o2)c1C	4.19 µM	> 100 µM	> 100 µM	> 100 µM
CCC1(c2ccc(Cl)cc2)NC(=S)N(c2ccc(C)cc2)N1 (configuration not stated)	> 100 µM (inactive)	> 100 µM	> 100 µM	> 100 µM
CCCSc1nnc(NC(=O)c2sc3nc(-c4cccs4)ccc3c2N)s1	62.8 µM (inactive)	> 100 µM	> 100 µM	> 100 µM
Cc1nnnn1/C(=C\c1ccccc1)C(=O)OCC(=O)Nc1ccc(Cl)cc1F	17 µM (inactive)	26.7 µM	35.8 µM	25.5 µM
Cn1nnnc1Sc1ncnc2scc(-c3cccc(F)c3)c12	15.4 µM	> 100 µM	> 100 µM	> 100 µM
O=C1C=C2C=C[C@@H]3CC2(O1)[C@H]1CCCCN31	78.1 µM (inactive)	> 100 µM	> 100 µM	> 100 µM

SMILES	IC50	IC50 [1]	IC90 [2]	IC90 [3]
O=C(/C=C/c1ccc([N+](=O)[O-])cc1)c1cccs1	5.35 µM	22.2 µM	95.1 µM	12.2 µM
CC(C(=O)Nc1nc2ccccc2[nH]1)N1C(=O)C2CC=CCC2C1=O (configuration not stated)	> 100 µM (inactive)	> 100 µM	> 100 µM	> 100 µM
Cc1cc(C=C2C(=O)NC(=S)NC2=O)c(C)n1-c1ccc2c(c1)OCO2	12.7 µM (inactive)	24.3 µM	25.3 µM	14.5 µM
CCOC(=O)c1c(C)oc2c1c(CN1CCN(C(=O)OCC)CC1)c(O)c1ccccc12	51.5 µM (inactive)	51.2 µM	> 100 µM	> 100 µM
Cc1ccc(O)c(-c2cc(-c3ccccc3F)[nH]n2)c1	> 100 µM (inactive)	> 100 µM	> 100 µM	> 100 µM
O=C1S/C(=C\C=C\c2ccco2)C(=O)N1c1ccccc1	14.7 µM	43.5 µM	> 100 µM	77.6 µM
Cc1nnc(SCc2cccc(Cl)c2)n(N)c1=O	4.43 µM	12 µM	18.1 µM	10.1 µM
CC(=O)NC(c1cc(Cl)c2cccnc2c1O)C1CC1 (configuration not stated)	23.1 µM	73.3 µM	> 100 µM	> 100 µM
Cc1ccc(NC(=O)C2(c3ccccc3)CC2(Cl)Cl)cc1C (configuration not stated)	> 100 µM (inactive)	> 100 µM	> 100 µM	> 100 µM
CC(=O)c1ccc(N2CCN(c3ncc(C(F)(F)F)cc3Cl)CC2)cc1	> 100 µM (inactive)	> 100 µM	> 100 µM	> 100 µM
CCc1ccc2oc(-c3cc(N)cc(C)c3O)nc2c1	76.1 µM (inactive)	93.2 µM	> 100 µM	> 100 µM
Cc1ccc(NC(=O)CSc2nnc([C@@H]3CCCN3C(=O)OC(C)(C)C)o2)c(C)c1	78.5 µM (inactive)	86.5 µM	> 100 µM	> 100 µM
O=C(COC(=O)C1CC1)c1c[nH]c2ccccc12	0.999 µM	> 100 µM	> 100 µM	> 100 µM
Cc1cc(Br)ccc1NC(=O)c1ccccc1-c1ccccc1	14.1 µM	> 100 µM	> 100 µM	> 100 µM
O=C(CCS(=O)(=O)c1ccccc1)N(CCCN1CCOCC1)c1nc2c(F)cccc2s1	11.3 µM	> 100 µM	> 100 µM	> 25 µM
CCOc1cccc(/C=N/Nc2nc(N3CCCC3)nc(N3CCCC3)n2)c1O	90.8 µM (inactive)	> 100 µM	> 100 µM	> 100 µM
Cc1ccc(C(=O)Nc2nc3ccccc3s2)s1	43.6 µM (inactive)	> 100 µM	> 100 µM	> 100 µM
C=C(C)C(=O)O[C@H]1C/C(C)=C\C(=O)/C=C(\C)[C@H](O)[C@@H]2OC(=O)C(=C)[C@@H]21	10.3 µM	41.1 µM	56 µM	31.3 µM
